# Reference: US20250221947A1, “METHODS FOR TREATING A CORONAVIRUS INFECTION USING VALPROIC ACID AND DOCOSAHEXAENOIC ACID” (priority 2024, published 2025)
# Values joined by “and” are separate entries in the source; they are usually repeats but may differ in a detail not shown here. Equal entries are not always repeated. “Also recorded” adds a separate entry of the source. Where two headings read alike, the source gives them in different places.
# Columns and labels:
# HCoV-229E [1] = assay: HCoV-229E viral replication inhibition in MRC5 cells (antibody- or oligonucleotide-based dot blot); type: cell-based, human coronavirus HCoV-229E; conditions: for inhibition of HCoV-229E viral replication, agent alone: MRC5, MOI 0.1, 48 hours drug, antibody-based assay; for IC50: Human coronavirus 229E; for fold reduction of IC50 for inhibition of viral replication by VPA preincubation: preincubation 24 or 48 hours / at least 24 hours prior to infection
# SARS-CoV2 [2] = assay: Optum dataset case-control analysis: COVID-19 positivity by nucleic acid testing in patients prescribed VPA; type: in vivo; conditions: patients prescribed VPA vs not, exact-matched multivariate analysis
# COVID-19 [3] = assay: Optum retrospective cohort: clinical progression of COVID-19 in patients prescribed or not prescribed VPA; type: in vivo
# HDAC2 = HDAC2 (Chlorocebus sabaeus, UniProt A0A0D9RT33); assay: Direct inhibition of HDAC2 activity in Vero cells; type: cell-based; conditions: read-out: IC50 of directly inhibiting HDAC2 activity
# p21 = p21 induction time course in Vero cells; type: cell-based; conditions: 2.55 mM VPA
# HCoV-229E [4] = assay: Viral RNA as % of total RNA by RNAseq in MRC5 cells infected with HCoV-229E; type: cell-based, human coronavirus HCoV-229E; conditions: drug added after 1 hour viral incubation, 48 hours; VPA 0.1 or 0.5 mM, DHA 25 μM
# MRC5 cells = assay: VPA time course RNAseq in MRC5 cells, SARS-CoV2 interacting (Gordon) gene set; type: cell-based, Homo sapiens
# SARS-CoV2 [5] = assay: SARS-CoV2 replication in MRC5 cells, viral RNA by qRT-PCR; type: cell-based
# COVID-19 [6] = conditions: therapeutic VPA cohort; serum levels for 442 of 691 patients; cited from earlier work
# COVID-19 [7] = conditions: 165 VPA-treated patients admitted for COVID-19; cited from earlier work
# SARS-CoV2 [8] = conditions: dose range of VPA (M range) less than the IC50 of HDAC2 inhibition; cited from earlier work
# [9] = in vivo; cited from earlier work
# [10] = use in pregnant women; cited from earlier work
# [11] = Serum VPA levels in a national data set (LabCorp)
# [12] = COVID-19 infected patients exposed to VPA, propensity-matched or multivariate-adjusted model
# [13] = patients on VPA tested by LabCorp, 2021
# HDAC2, sequence (A0A0D9RT33 1-488): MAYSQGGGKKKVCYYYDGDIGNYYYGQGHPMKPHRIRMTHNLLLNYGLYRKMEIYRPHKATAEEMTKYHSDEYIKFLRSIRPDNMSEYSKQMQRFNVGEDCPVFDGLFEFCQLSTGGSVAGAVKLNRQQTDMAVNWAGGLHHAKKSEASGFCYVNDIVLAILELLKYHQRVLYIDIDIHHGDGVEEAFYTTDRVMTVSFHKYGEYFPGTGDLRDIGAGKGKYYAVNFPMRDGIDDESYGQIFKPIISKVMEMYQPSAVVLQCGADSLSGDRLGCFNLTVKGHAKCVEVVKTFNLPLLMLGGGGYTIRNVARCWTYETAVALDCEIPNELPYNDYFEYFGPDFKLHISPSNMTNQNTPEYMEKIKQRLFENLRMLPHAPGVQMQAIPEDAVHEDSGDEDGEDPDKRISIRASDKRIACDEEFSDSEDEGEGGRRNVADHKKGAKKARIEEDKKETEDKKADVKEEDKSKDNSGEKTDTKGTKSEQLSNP
structure (smiles),measurement,setting,value
"CC/C=C\C/C=C\C/C=C\CCCCCCCC(=O)O [ALA, alpha-linolenic acid]","inhibition of HCoV-229E viral replication, agent alone",HCoV-229E [1],least impact; also recorded: least inhibition
"CCCCC/C=C\C/C=C\CCCCCCCC(=O)O [LA, linoleic acid]","inhibition of HCoV-229E viral replication, agent alone",HCoV-229E [1],substantial inhibitory effect; also recorded: significant inhibition of viral replication
"CC(/C=C/C(=O)NO)=C\[C@@H](C)C(=O)c1ccc(N(C)C)cc1 [Trichostatin A, trichostatin A]","inhibition of HCoV-229E viral replication, agent alone",HCoV-229E [1],did not significantly inhibit viral replication
same,inhibition of viral replication in combination with DHA,HCoV-229E [1]; with 25 μM DHA,inhibition across the board; also recorded: augmented at the very highest dose of Trichostatin A tested
"CCCC(CCC)C(=O)O [VPA, valproic acid]",decreased risk of contracting COVID-19 / reduction in COVID-19 positive testing,SARS-CoV2 [2],25%
same,reduction in ER visits,COVID-19 [3]; [12],12-15%
same,reduction in ICU admissions,COVID-19 [3]; [12],14-16%
same,reduction in hospital admission,COVID-19 [3]; [12],17-45%
same,reduction in mechanical ventilation,COVID-19 [3]; [12],33-39%
same,protective effect against emergency room visits,COVID-19 [3]; univariate (unadjusted) logistic regression,no protective effect against emergency room visits
same,IC50,HDAC2,≥ 2500 µM
same,time of earliest p21 induction,p21,24 h
same,time of maximal p21 induction,p21,72 h
same,IC50,"HCoV-229E [1]; MRC5, HCoV-229E, no preincubation, read-out: IC50 in conventional coronavirus replication assay",~5000 µM
same,IC50,"HCoV-229E [1]; MRC5, HCoV-229E, no preincubation, read-out: IC50 in conventional coronavirus replication assay, translated",> 720 µg/mL
same,IC50,"HCoV-229E [1]; MRC5, read-out: IC50 for inhibition of viral replication, MRC5 incubated with valproic acid at least 24 hours prior to infection",~600 µM
same,IC50,"HCoV-229E [1]; MRC5, read-out: IC50 for inhibition of viral replication, corresponding serum level, MRC5 incubated with valproic acid at least 24 hours prior to infection",85 µg/mL
same,dose required for antiviral activity,"HCoV-229E [1]; VPA used alone, in vitro testing",> 0.6 mM
same,dose requirement of VPA for antiviral activity in combination with DHA,HCoV-229E [1]; combination of DHA and VPA in vitro (FIG. 4B),0.1 mM
same,fold reduction of IC50 for inhibition of viral replication by VPA preincubation,HCoV-229E [1],more than 3 fold
same,fold reduction of IC50 for inhibition of viral replication by VPA preincubation,HCoV-229E [1]; listed as valproic acid,~10 fold
same,effect on viral replication (viral RNA as % of total RNA),HCoV-229E [4],not significantly impacted
same,expression of viral pathogenicity and replication genes (Gordon gene set),"MRC5 cells; MRC5 cells, VPA 24 and 48 hours",down-regulated preferentially
same,time before gene expression profile changes can be detected,"MRC5 cells; coronavirus permissive cell lines, VPA time course",at least 24 hours
same,time of maximal gene expression profile changes,"MRC5 cells; coronavirus permissive cell lines, VPA time course, in some cases",72 to 96 h
same,reduction by 24 hours preincubation,SARS-CoV2 [5]; 24 hours preincubation vs none,more than 50%
same,inhibitory activity against SARS-CoV2,"SARS-CoV2 [5]; MRC5, MOI 0.1, VPA 0.5 mM, DHA 25 μM",substantial inhibitory activity
same,effect of (additional) preincubation,"SARS-CoV2 [5]; VPA: additional preincubation up to 5 days, DHA: preincubation",did not provide any additional effects
same,% viral RNA detected compared to control MRC5 cells without drug,SARS-CoV2 [5]; preincubation by 24 hours,less than 10%
same,% viral RNA detected compared to control MRC5 cells without drug,SARS-CoV2 [5]; without preincubation,20%
same,OR for contracting COVID-19,COVID-19 [6],0.218
same,clinical course vs matched controls,COVID-19 [7],"shorter duration of symptoms, lower in-hospital respiratory worsening, lower ICU admissions, and fewer pulmonary infiltrates"
same,mortality vs matched controls,COVID-19 [7],not statistically different
same,inhibition of viral infection,SARS-CoV2 [8],no measurable inhibition of viral infection
same,target serum concentrations for seizure disorder,[9],50 to 100 µg/mL
same,elevation of the risk of certain birth defects,[10],roughly three-fold
same,share of samples testing 79 μg/mL or higher,"[11]; LabCorp, second quarter of 2021",25%
same,"serum VPA level, mean",[11]; [13],56.7 µg/mL and 56.65 µg/mL
same,"serum VPA level, median",[11]; [13],59.0 µg/mL and 59 µg/mL
C/C=C1\NC(=O)[C@H]2CSSCC/C=C/[C@H](CC(=O)N[C@H](C(C)C)C(=O)N2)OC(=O)[C@H](C(C)C)NC1=O [depsipeptide],IC50,"HCoV-229E [1]; MRC5, read-out: IC50 of inhibition of viral replication, with 25 μM DHA",0.0001 µM
same,IC50,"HCoV-229E [1]; MRC5, read-out: IC50 of inhibition of viral replication, without DHA",0.0008 µM
same,"inhibition of HCoV-229E viral replication, agent alone",HCoV-229E [1],significant inhibition of viral replication
